The numbers were not newly measured in patent US11324828B2, “Hydrogel polymeric compositions and methods” (Incept, LLC, priority 2007, dated 2022), which cites them from elsewhere.

Assay in data set [1]: not given
This is another data set of the same source.

SMILES strings stand for the structures. Read-outs that look alike come from different tables or passages of the source.

`O=C(O)Cc1ccccc1Nc1c(Cl)cccc1Cl` [Diclofenac Sodium]: the water solubility result is recorded as “about 1113 mg/L”.
For the molecule `CCCCN1CCCCC1C(=O)Nc1c(C)cccc1C` (stereo not drawn) [Bupivacaine], the water solubility result was “about 86 mg/L”.
By Solubility is commonly meant the dissolved amount per volume that the medium holds. Take `CC(C(=O)[O][Ca][O]C(=O)C(C)c1cccc(Oc2ccccc2)c1)c1cccc(Oc2ccccc2)c1` (stereo not drawn) [Fenoprofen Calcium]: the Solubility entry in data set [1] (in water) is “Slightly soluble in water”.
Take `Cc1ccc(Cl)c(Nc2ccccc2C(=O)[O-])c1Cl.[Na+]` [Meclofenamate Sodium]: the Solubility in data set [1] (@ pH 7.2) is given as <50 μg/mL @ pH 7.2 50 mg/mL @ pH 9.0.
As to `CCc1cccc2c3c([nH]c12)C(CC)(CC(=O)O)OCC3` (stereo not drawn) [Etodolac], the Solubility entry in data set [1] (in water) was “Insoluble in water”.
Take `NC(=O)Cc1cccc(C(=O)c2ccccc2)c1N` [Nepafenac]: in data set [1] (no pH or medium printed), the Solubility is reported as <1 mg/ml (The drug is available as 0.1% suspension).
